Experimental data from article PMC12501029, “Discovery of a CNS active GSK3 degrader using orthogonally reactive linker screening” (Nature Communications, 2025).
“Also recorded” adds a separate entry of the source. Where two headings read alike, the source gives them in different places.

Columns and labels:
Assay type in all cases: in vivo, female Balb/c mice
[1] = Discrete i.v./p.o. KH1 (24) PK study and brain penetration
From the text: Fifteen female mice of the Balb/c strain were obtained from Charles River Laboratories, UK. Animals were maintained under a 12-h light/12-h dark cycle, in Thoren mouse caging containing EC0 aspen bedding (DBM, UK), with 'Sizzlenest' and 'Rodent Rolls' nesting material (DBM). Enrichment materials included aspen chew sticks, cardboard houses, tunnels, swings, and sunflower seeds. All animals had ad libitum access to food (5LF2 Extruded Diet, IPS Ltd, UK) and tap water throughout. Temperature and relative humidity were maintained between 19 °C–24 °C and 45%–65%, respectively. All animals received a minimum of 10 days of acclimatisation prior to the start of the study.
(§1) The intravenous formulations for KH1 (24) were prepared by dissolving the compound in DMSO. This was then diluted with PEG400, followed by dropwise addition of sterile water to form a complete solution. The resulting formulations consisted of 5% DMSO, 40% PEG400, and 55% water, and contained KH1 (24) at a concentration of 0.1 mg/mL (for the PK study), or 1.0 mg/mL (for the PK/PD study), respectively.
The oral formulation for KH1 (24) was produced by vigorously mixing the compound with a sterile solution containing 0.5% hydroxypropylmethylcellulose in water, until a fine homogenous suspension was formed. The resulting formulation contained KH1 (24) at a concentration of 0.6 mg/mL. Dose formulations were prepared on the day of dosing, and animals were observed regularly after dose administration.
[…] Serial blood samples (10 µL per sample) were collected from the lateral tail vein of three intravenously-dosed mice and three orally-dosed mice at 5, 15 and 30 min, 1, 2, 4, 6, 8, and 24 h after dose administration. Blood samples were diluted into 90 µL of Milli‑Q ultrapure water. The remaining three intravenously-dosed animals were placed under terminal anaesthesia with isoflurane, 2 h after bolus administration. Blood was collected via cardiac puncture and the brains were removed. Two aliquots of 10 µL blood were each diluted into 90 µL of Milli-Q ultrapure water. All blood samples were stored at −20 °C prior to bioanalysis. The concentration of KH1 (24) in blood and brain was determined by UPLC-MS/MS.
(§2) Blood samples (10 µL) from study mice were diluted 1× with 90 µL of water immediately when the sample was taken. All calibration, quality control, blanks and double blank samples (all 100 µL volume) were mixed (vortexed) with 300 µL of LCMS grade acetonitrile to precipitate proteins.
(§3) For study samples, a volume (30 µL) was mixed (vortexed) with a volume (90 µL) of acetonitrile to precipitate proteins. After protein precipitation, all samples were centrifuged to pellet the proteins. Study samples in Micronics tubes were centrifuged using a Beckman Coutler Allegra C-12R Centrifuge for 10 min at 3750 rpm. All other samples in Eppendorf tubes were centrifuged using a Sigma SciQuip 1–14 centrifuge for 10 min (14,800 rpm/16,163 × g). Supernatant from study samples (80 µL) and calibration samples, QCs, blanks, and double blanks (200 µL) were then transferred to HPLC glass vials containing Milli-Q water (40 µL or 100 µL, respectively), ready for LCMS analysis.

[2] = KH1 (24) intravenous PK/PD study: blood and brain levels, observation
Procedure: as §1, with “formulation” for “formulations”, “was” for “were”, “of” for “of 0.1 mg/mL (for the PK study), or”, “mg/mL.” for “mg/mL (for the PK/PD study), respectively.”
For the PK/PD study for KH1 (24), three female Balb/c mice were given a bolus intravenous injection at a dose level of 5 mg/kg (5 mL/kg). Animals were observed regularly after dose administration. At 4 h after the administration of KH1 (24), all animals were placed under terminal anaesthesia with isoflurane. Blood was collected via cardiac puncture and the brain and liver were removed. Two aliquots of 10 µL blood were each diluted into 90 µL of Milli-Q ultrapure water. All diluted blood samples were stored at −20 °C prior to bioanalysis. A portion of the brain was stored at −20 °C awaiting bioanalysis, while the remaining brain and liver tissues were snap-frozen in liquid nitrogen and stored at −80 °C awaiting biological investigation. The concentration of KH1 (24) in whole blood and brain tissue was determined via UPLC-MS/MS.
as §2, §3

GSK3β = target: T1, GSK3β (Mus musculus, UniProt Q9WV60); assay: KH1 (24) intravenous PK/PD study: GSK3β abundance in liver and brain (immunoblot); conditions: single 5 mg/kg i.v., 4 h, listed as KH1 (24)
T1 construct: measured KH1 (24) levels in plasma and brain at 4 h, as well as GSK3β abundance in liver and brain; tissue Charles River Laboratories, UK; host or cells: liver and brain of female Balb/c mice
T1 sequence (Q9WV60 whole entry): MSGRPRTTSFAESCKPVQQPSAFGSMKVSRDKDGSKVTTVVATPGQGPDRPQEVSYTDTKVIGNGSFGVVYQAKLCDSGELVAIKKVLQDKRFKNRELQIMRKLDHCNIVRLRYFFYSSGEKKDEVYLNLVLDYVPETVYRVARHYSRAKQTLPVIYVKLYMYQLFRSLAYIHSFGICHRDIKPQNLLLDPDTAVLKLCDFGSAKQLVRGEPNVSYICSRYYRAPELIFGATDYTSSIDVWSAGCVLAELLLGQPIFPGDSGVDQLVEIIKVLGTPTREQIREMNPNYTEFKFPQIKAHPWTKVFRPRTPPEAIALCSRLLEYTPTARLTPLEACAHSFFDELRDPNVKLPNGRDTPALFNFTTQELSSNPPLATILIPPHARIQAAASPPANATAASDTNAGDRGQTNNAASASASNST
Procedure: A fraction of frozen brain and liver samples from control (CNT) and compound KH1 (24) treated animals were-transferred into Precellys 2 mL ceramic bead tubes containing 1 mL SDS lysis buffer (50 mM Tris-HCl pH 7.4, 150 mM NaCl, 1 mM EGTA, 270 mM sucrose, 1% (v/v) Triton-X100) supplemented with complete EDTA-free protease inhibitor cocktail (Roche) and PhosSTOP phosphatase inhibitor tablets (Roche) and placed immediately on ice. Then samples were placed in Precellys Evolution tissue homogeniser (Bertin Technologies) and tissues were lysed at 0 °C for 3 × 30 s of cycles at 6800 rpm, with 30 s pause in between cycles. Samples were centrifugated at 4 °C, 2000 × g for 60 s to get rid of bubbles and supernatant was transferred into new tubes. Lysates were cleared via centrifugation at 16,000 × g, 4 °C for 20 min. Protein concentration was determined by BCA assay (Thermo Scientific) and immunoblotting performed as previously described above. Immunoblots were quantified using ImageLab (Bio-Rad) and band intensities were normalised to loading controls; anti-GAPDH or Ponceau S staining and fold changes for protein of interest were plotted.
For the PK/PD study for KH1 (24), three female Balb/c mice were given a bolus intravenous injection at a dose level of 5 mg/kg (5 mL/kg). […] The concentration of KH1 (24) in whole blood and brain tissue was determined via UPLC-MS/MS.

[3] = female, Balb/c, mouse, whole blood, Oral, 3 mg/kg

Cn1nc(N2CCC(=O)NC2=O)c2ccc(CN3CCN(Cc4ccc(-c5cn(-c6ccc(-c7cn8nccc(C(=O)Nc9cnccc9N9CCOCC9)c8n7)cc6)nn5)nc4)CC3)cc21 [compound 24]
Half_Life ([1]; IV, 0.37 mg/kg): 2.3 h | Vss_obs ([1]; IV, 0.37 mg/kg): 2.0 L/kg | concentration at 2 h ([1]; female, Balb/c, mouse, brain (unbound), intravenous, 0.37 mg/kg, predicted from brain concentration and measured free fraction, read-out: free concentration in brain): 0.02 nM | Kp uu at 2 h ([1]; female, Balb/c, mouse, brain / plasma (unbound), iv, 0.37 mg/kg i.v., 2 h, read-out: estimated Kp,uu): 0.05 | Kp at 2 h ([1]; female, Balb/c, mouse, brain / whole blood, intravenous, 0.37 mg/kg i.v., 2 hours, read-out: Brain:Blood Ratio): 0.18 | concentration at 2 h ([1]; female, Balb/c, mouse, brain, intravenous, 0.37 mg/kg i.v., 2 hours, read-out: Mean Brain Concentration): 16 nM | concentration at 2 h ([1]; female, Balb/c, mouse, plasma (unbound), intravenous, 2 h, 0.37 mg/kg, using predicted free fractions, read-out: unbound total plasma concentration): 0.4 to 0.9 nM | concentration at 2 h ([1]; female, Balb/c, mouse, whole blood, intravenous, 0.37 mg/kg i.v., 2 hours, read-out: Mean Blood Concentration): 88 nM | AUC(0-t) ([1]; female, Balb/c, mouse, whole blood, iv, 0.37 mg/kg): 572 ng·h/mL | clearance ([1]; female, Balb/c, mouse, whole blood, iv, 0.37 mg/kg, read-out: Cl_obs): 10 mL/min/kg | AUC(0-t) [1, 3]: 82.2 ng·h/mL | Cmax [1, 3]: 19 ng/mL | Tmax [1, 3]: 2 h | bioavailability ([1]; female, Balb/c, mouse, whole blood, Oral, 3 mg/kg, read-out: F (oral bioavailability)): 1.6% | total mean plasma concentration ([1]; for up to 4 h following i.v. dosing at 0.37 mg/kg): above 65 nM | adverse signs in vivo ([2]; 5 mg/kg IV study and the lower IV/PO study): no adverse signs | Kp at 4 h ([2]; female, Balb/c, mouse, brain / whole blood, intravenous, 5 mg/kg i.v., 4 hours, read-out: Brain:Blood Ratio): 0.1 | concentration at 4 h ([2]; female, Balb/c, mouse, brain, intravenous, 5 mg/kg i.v., 4 hours, read-out: Mean Brain Concentration): 68 nM | concentration at 4 h ([2]; female, Balb/c, mouse, whole blood, intravenous, 5 mg/kg i.v., 4 hours, read-out: Mean Blood Concentration): 696 nM | GSK3β abundance in liver (GSK3β; p < 0.0001 vs control): almost complete removal of GSK3β; also recorded: almost completely remove GSK3β | GSK3β abundance in brain (GSK3β; p = 0.0159 vs control): significant degradation of GSK3β; also recorded: partial degradation
